Data: PubChem BioAssay (NCI)
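Assay format: 96-well plates, 48-hour exposure. GI50 is the concentration that inhibits growth by half. Definition used: TGI = concentration required for complete inhibition of growth.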

Key:
Assay in all cases: DTP human tumour cell line panel, 48 h
MDA-N = tested on: MDA-N
HL-60(TB) leukemia = tested on: HL-60(TB) leukemia
UACC-257 melanoma = tested on: UACC-257 melanoma
SK-MEL-28 melanoma = tested on: SK-MEL-28 melanoma
HOP-92 NSCLC = tested on: HOP-92 NSCLC
MALME-3M melanoma = tested on: MALME-3M melanoma
RPMI-8226 leukemia = tested on: RPMI-8226 leukemia
KM12 colon = tested on: KM12 colon
SR leukemia = tested on: SR leukemia
DMS 273 small cell lung = tested on: DMS 273 small cell lung

SMILES | TGI (MDA-N) [µM] | TGI (HL-60(TB) leukemia) [µM] | TGI (UACC-257 melanoma) [µM] | TGI (SK-MEL-28 melanoma) [µM] | TGI (HOP-92 NSCLC) [µM] | TGI (MALME-3M melanoma) [µM] | TGI (RPMI-8226 leukemia) [µM] | TGI (KM12 colon) [µM] | TGI (SR leukemia) [µM] | TGI (DMS 273 small cell lung) [µM] | GI50 (HL-60(TB) leukemia) [µM] | GI50 (HOP-92 NSCLC) [µM] | GI50 (RPMI-8226 leukemia) [µM] | GI50 (KM12 colon) [µM] | GI50 (SR leukemia) [µM]
O=c1[nH]nc(-c2ccccc2)n1/N=C\c1ccccc1 | > 100 | > 100 | > 100 | > 100 | > 100 | > 100 | > 100 | > 100 | > 100 | – | – | – | – | – | –
COc1c(O)c(C=O)c2c(O)c(-c3c(C)cc4c(C(C)C)c(OC)c(O)c(C=O)c4c3O)c(C)cc2c1C(C)C | – | 41.4 | 29 | 22.7 | 8.31 | 18.8 | 22.4 | 16 | 22.7 | 14.9 | – | – | – | – | –
CCNC(=S)N=Nc1c(O)[nH]c2ccc([N+](=O)[O-])cc12 | > 100 | > 100 | > 100 | > 100 | > 100 | > 100 | > 100 | > 100 | > 100 | – | – | – | – | – | –
C=C[C@@H](C)[C@H](NS(=O)(=O)c1ccc(C)cc1)C(=O)OCC | 83.6 | > 100 | 71.5 | > 100 | – | > 100 | 35.5 | > 100 | > 100 | – | – | – | – | – | –
Nc1ccc(S(=O)(=O)c2ccc(NCN3C(=O)NC(=O)C(=O)C3=O)cc2)cc1 | > 100 | – | > 100 | > 100 | > 100 | > 100 | – | > 100 | > 100 | – | – | – | – | – | –
CO/N=C1\CC(NC(=O)CNC(=O)OC(C)(C)C)c2ccsc21 (stereo not given) | > 100 | > 100 | > 100 | > 100 | > 100 | > 100 | – | – | > 100 | – | – | – | – | – | –
Cc1cc(-c2nc3cc(F)ccc3s2)ccc1NC(=O)[C@@H](N)CCCCN | 3.27 | 6.29 | 13.3 | 34.6 | 30.3 | 33.2 | 4.88 | 3.36 | 3.52 | – | – | – | – | – | –
CCN(CC)N1C(=O)[N+](CC)(CC)N=C1[O-] | > 100 | > 100 | – | > 100 | > 100 | > 100 | > 100 | > 100 | > 100 | – | – | – | – | – | –
NS(=O)(=O)c1ccc(/C=C/c2ccc(F)cc2)cc1 | > 100 | > 100 | > 100 | > 100 | 77.6 | > 100 | > 100 | 67 | > 100 | – | 37.3 | 33.2 | 42.3 | 16.3 | 10.5
CC(=O)Oc1cc2c(cc1OC(C)=O)OCC(c1ccc(C)cc1)C2 (stereo not given) | – | 6.56 | 40.3 | 39.3 | 29 | 32 | 63.1 | 58.6 | – | 48.5 | – | – | – | – | –
CSCCC(N)C(=O)NCCNc1ccc(NCCNC(=O)C(N)CCSC)c2c1C(=O)c1ccccc1C2=O (stereo not given) | 4.23 | 5.36 | 12.7 | 3.17 | 3.4 | 6.6 | – | 12.8 | 2.85 | – | – | – | – | – | –
O=C1C(Cl)=C(OCCCl)C(=O)c2c(O)ccc(O)c21 | 7.37 | 0.197 | 8.01 | 12.5 | 3.12 | 7.53 | 0.993 | 40.5 | 0.397 | – | – | – | – | – | –
Cc1cccc(Nc2nn3c(=O)c4c5c(sc4nc3s2)CCCC5)c1 | > 100 | > 100 | > 100 | > 100 | > 100 | – | – | > 100 | > 100 | – | – | – | – | – | –
CC(=O)NCCC1CN(C(=O)/C=C/I)c2ccccc21 (stereo not given) | 9.26 | > 100 | 20.4 | 18.2 | 4.43 | 26.3 | > 60.5 | 2.67 | > 27.4 | – | – | – | – | – | –
O=[N+]([O-])c1ccc2sc(C=Nc3cnccn3)cc2c1 | > 100 | 43.8 | > 100 | > 100 | > 100 | > 100 | 52.9 | > 100 | 45.5 | – | – | – | – | – | –
OCCO/N=C1\C(c2c(O)[nH]c3ccccc23)=Nc2ccccc21 | > 100 | > 100 | > 100 | > 100 | > 100 | > 100 | > 100 | > 100 | > 100 | – | – | – | – | – | –
CSCSSC | > 100 | – | > 100 | > 100 | > 100 | > 100 | > 100 | > 100 | > 100 | – | – | – | – | – | –
Cc1ccc(OCC2OC(n3cnc4c(Cl)nc(N)nc43)CC2Oc2ccc(C)cc2)cc1 (stereo not given) | > 100 | > 71.7 | > 100 | > 100 | 51.7 | > 85.3 | > 100 | > 100 | > 100 | – | – | – | – | – | –
O=C1NC(=O)C(C(CC(=O)c2ccc([N+](=O)[O-])cc2)c2ccccc2)C(=O)N1 (stereo not given) | > 100 | > 100 | > 100 | > 100 | > 100 | 42.9 | > 100 | 30.4 | > 100 | – | – | – | – | – | –
CCCCC(=O)c1c(O)nc2sccn2c1=O | > 10 | > 10 | – | > 10 | – | > 10 | > 10 | > 10 | > 10 | – | – | – | – | – | –
CCCCOC(=O)C(NC(C(=O)OCCCC)c1cc(C(C)(C)C)c(O)c(C(C)(C)C)c1)c1cc(C(C)(C)C)c(O)c(C(C)(C)C)c1 (stereo not given) | > 100 | > 100 | > 100 | > 100 | > 100 | > 100 | > 100 | > 100 | – | – | – | – | – | – | –
